From ChEMBL document CHEMBL1201862, “PubChem BioAssay data set” (2004)
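96-well plates; 48 h exposure; 5 concentrations. Endpoints by linear interpolation between flanking doses. Not reached: highest tested concentration assigned. GI50 marks 50% less growth.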 Activity calls are given as the source filed them. No stated cut-off is given here; in the data, active = GI50 up to about 1.1 µM and inactive = higher.

Experiments:
Experiment in all cases: DTP human tumour cell line panel, 48 h
[1] = tested on: CCRF-CEM
[2] = tested on: DU-145
[3] = tested on: EKVX
[4] = tested on: HL-60
[5] = tested on: HT-29
[6] = tested on: K562
[7] = tested on: LOX IMVI
[8] = tested on: MCF7
[9] = tested on: MDA-MB-231
[10] = tested on: NCI-H23
[11] = tested on: OVCAR-4
[12] = tested on: OVCAR-5
[13] = tested on: OVCAR-8
[14] = tested on: RXF 393
[15] = tested on: SF-268
[16] = tested on: SF-539
[17] = tested on: SN12C
[18] = tested on: UACC-62
[19] = tested on: 786-0
[20] = tested on: SNB-75

SMILES | GI50 [1] | GI50 [2] | GI50 [3] | GI50 [4] | GI50 [5] | GI50 [6] | GI50 [7] | GI50 [8] | GI50 [9] | GI50 [10] | GI50 [11] | GI50 [12] | GI50 [13] | GI50 [14] | GI50 [15] | GI50 [16] | GI50 [17] | GI50 [18] | GI50 [19] | GI50 [20]
CNC(C)C(O)c1ccc2oc3cc(=O)c4ccccc4c-3nc2c1 (centres undefined) | 5.52 µM (inactive) | 5.31 µM (inactive) | 40 µM (inactive) | 21.8 µM (inactive) | 36.3 µM (inactive) | 2.72 µM (inactive) | 4.1 µM (inactive) | 18.9 µM (inactive) | 45.5 µM (inactive) | 4.3 µM (inactive) | 17.3 µM (inactive) | 32.5 µM (inactive) | 6.15 µM (inactive) | 25.8 µM (inactive) | 27.2 µM (inactive) | 1.45 µM (inactive) | 10.6 µM (inactive) | 3.82 µM (inactive) | – | –
CCOC(=O)CCC(NC(=O)OCc1ccccc1)C(=O)NC(CCC(=O)OCC)C(=O)NC(CCC(=O)OCC)C(=O)NC(CCC(=O)OCC)C(=O)NC(CCC(=O)OCC)C(=O)NC(CCC(=O)OCC)C(=O)NC(CCC(=O)OCC)C(=O)OCC (centres undefined) | 72.9 µM (inactive) | > 100 µM (inactive) | – | > 100 µM (inactive) | > 100 µM (inactive) | > 100 µM (inactive) | > 100 µM (inactive) | > 100 µM (inactive) | > 100 µM (inactive) | > 100 µM (inactive) | > 100 µM (inactive) | > 100 µM (inactive) | > 100 µM (inactive) | – | > 100 µM (inactive) | – | > 100 µM (inactive) | > 100 µM (inactive) | > 100 µM (inactive) | 40.5 µM (inactive)
CC(=O)Oc1ccc(-c2cc3ccccc3oc2=O)cc1 | > 100 µM (inactive) | > 100 µM (inactive) | 61.1 µM (inactive) | 24.8 µM (inactive) | > 100 µM (inactive) | 83.4 µM (inactive) | 81.3 µM (inactive) | > 100 µM (inactive) | > 100 µM (inactive) | > 100 µM (inactive) | > 100 µM (inactive) | > 100 µM (inactive) | > 100 µM (inactive) | – | > 100 µM (inactive) | > 100 µM (inactive) | > 100 µM (inactive) | – | > 100 µM (inactive) | 56.6 µM (inactive)
CC1=C(C(=O)OCCO[N+](=O)[O-])C(c2ccccc2C(F)(F)F)C(C(=O)OC(C)C)=C(C)N1 (centres undefined) | 27.3 µM (inactive) | 39.4 µM (inactive) | 24.6 µM (inactive) | 15.9 µM (inactive) | 14.2 µM (inactive) | 3.94 µM (inactive) | 13.9 µM (inactive) | 16 µM (inactive) | 10.9 µM (inactive) | 19.6 µM (inactive) | 12.7 µM (inactive) | 14.8 µM (inactive) | 17.7 µM (inactive) | 10.3 µM (inactive) | 16.3 µM (inactive) | 17.3 µM (inactive) | 16.8 µM (inactive) | 19.3 µM (inactive) | 15 µM (inactive) | –
O=C(/N=N/c1ccc(Br)cc1)NNc1ccc(Br)cc1 | 0.132 µM (active) | 40.8 µM (inactive) | – | 14 µM (inactive) | 17.4 µM (inactive) | 10.5 µM (inactive) | – | 18.2 µM (inactive) | 21.2 µM (inactive) | 22.5 µM (inactive) | – | 23.3 µM (inactive) | 29.7 µM (inactive) | 14.1 µM (inactive) | – | – | – | 14.1 µM (inactive) | – | 29.4 µM (inactive)
O=c1[nH]nc(NNc2ccccc2)c2nnn(C3CCCCC3)c12 | > 100 µM (inactive) | > 100 µM (inactive) | > 100 µM (inactive) | > 100 µM (inactive) | > 100 µM (inactive) | > 100 µM (inactive) | > 100 µM (inactive) | > 100 µM (inactive) | > 100 µM (inactive) | > 100 µM (inactive) | > 100 µM (inactive) | > 100 µM (inactive) | 88.1 µM (inactive) | – | – | – | > 100 µM (inactive) | – | – | –
